We go through 10 molecules from US11987588B2, “Modulators of the beta-3 adrenergic receptor useful for the treatment or prevention of heart failure and disorders related thereto” (Arena Pharmaceuticals, Inc., priority 2017, dated 2024).

Molecules are shown by their SMILES.

This assay addresses Beta-3 Adrenergic Receptor (Homo sapiens (Human), UniProt P13945). The experiment in a line: Homogeneous Time-Resolved Fluorescence (HTRF) cAMP antagonist assay, IC50 determination. It counts as cell-based. The settings on record: CHO-K1 cells stably expressing recombinant receptor, isoproterenol at EC90. The essentials:
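CHO-K1 cells stably expressing the recombinant receptor were preincubated with compound (10-point, 5-fold dilutions; top final typically 10 or 100 μM) in PBS with 1 mM IBMX, then stimulated with isoproterenol at its EC90 for 1 h at room temperature. cAMP was read by HTRF against an on-plate standard curve.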

Chain of Beta-3 Adrenergic Receptor (P13945 whole entry, species assumed): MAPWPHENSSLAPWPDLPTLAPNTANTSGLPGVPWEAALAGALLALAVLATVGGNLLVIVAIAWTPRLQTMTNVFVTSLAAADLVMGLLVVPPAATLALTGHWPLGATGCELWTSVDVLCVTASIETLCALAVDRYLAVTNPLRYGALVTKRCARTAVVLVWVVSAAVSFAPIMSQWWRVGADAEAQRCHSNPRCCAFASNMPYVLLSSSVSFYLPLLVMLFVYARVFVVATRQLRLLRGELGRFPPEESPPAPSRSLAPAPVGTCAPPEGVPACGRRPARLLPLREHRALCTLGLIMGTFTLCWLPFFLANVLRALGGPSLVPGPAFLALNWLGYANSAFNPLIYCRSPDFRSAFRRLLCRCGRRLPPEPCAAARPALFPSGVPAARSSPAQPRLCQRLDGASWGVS

What is called IC50 is the concentration at which inhibition is half-maximal. On to `CNS(=O)(=O)c1cccc(OC[C@@H](O)CNC2COC3(CCN(S(=O)(=O)c4c(F)cccc4F)CC3)C2)c1` (stereo partly drawn) [Compound 156, 3-((2S)-3-(8-(2,6-difluorophenylsulfonyl)-1-oxa-8-azaspiro[4.5]decan-3-ylamino)-2-hydroxypropoxy)-N-methylbenzenesulfonamide], for which the IC50 was 25.4 nM. In the case of `CNS(=O)(=O)c1cccc(OC[C@@H](O)CN[C@H]2COC3(CCN(S(=O)(=O)c4cnc5c(c4)c(Cl)cn5C)CC3)C2)c1` [Compound 513, 3-((S)-3-((R)-8-(3-chloro-1-methyl-1H-pyrrolo[2,3-b]pyridin-5-ylsulfonyl)-1-oxa-8-azaspiro[4.5]decan-3-ylamino)-2-hydroxypropoxy)-N-methylbenzenesulfonamide], the IC50 amounted to 6.36 nM. In the case of `CNS(=O)(=O)c1cccc(OC[C@@H](O)CN[C@H]2COC3(CCN(S(=O)(=O)c4cccc(-c5cnn(C)c5)c4)CC3)C2)c1` [Compound 215, 3-((S)-2-hydroxy-3-((R)-8-(3-(1-methyl-1H-pyrazol-4-yl)phenylsulfonyl)-1-oxa-8-azaspiro[4.5]decan-3-ylamino)propoxy)-N-methylbenzenesulfonamide] it was 7.41 nM. As for `CNS(=O)(=O)c1cccc(OC[C@@H](O)CNC2COC3(CCN(S(=O)(=O)c4ccc(F)c(C)c4)CC3)C2)c1` (stereo partly drawn) [Compound 149, 3-((2S)-3-(8-(4-fluoro-3-methylphenylsulfonyl)-1-oxa-8-azaspiro[4.5]decan-3-ylamino)-2-hydroxypropoxy)-N-methylbenzenesulfonamide], the IC50 was 20.6 nM. With `CNS(=O)(=O)c1cccc(OC[C@@H](O)CN[C@@H]2COC3(CCN(S(=O)(=O)c4ccc5c(c4)NC(=O)CO5)CC3)C2)c1` [Compound 278, 3-((S)-2-hydroxy-3-((S)-8-(3-oxo-3,4-dihydro-2H-benzo[b][1,4]oxazin-6-ylsulfonyl)-1-oxa-8-azaspiro[4.5]decan-3-ylamino)propoxy)-N-methylbenzenesulfonamide], the IC50 worked out at 12.8 nM.

As for `Cc1n[nH]c2ncc(S(=O)(=O)N3CCC4(CC3)C[C@@H](NC[C@H](O)COc3cccc(S(N)(=O)=O)c3)CO4)cc12` [Compound 564, 3-((S)-2-hydroxy-3-((R)-8-(3-methyl-1H-pyrazolo[3,4-b]pyridin-5-ylsulfonyl)-1-oxa-8-azaspiro[4.5]decan-3-ylamino)propoxy)benzenesulfonamide], the IC50 turned out to be 27 nM.

For the molecule `CNS(=O)(=O)c1cccc(OC[C@@H](O)CNC2COC3(CCN(S(=O)(=O)c4cc(C)cc(Br)c4)CC3)C2)c1` (stereo partly drawn) [Compound 219, 3-((2S)-3-(8-(3-bromo-5-methylphenylsulfonyl)-1-oxa-8-azaspiro[4.5]decan-3-ylamino)-2-hydroxypropoxy)-N-methylbenzenesulfonamide], the IC50 is 25.3 nM. The value for `O=S(=O)(NCC1CCCNC1)c1cccc(OC[C@@H](O)CNC2COC3(CCN(S(=O)(=O)c4ccc5ccccc5c4)CC3)C2)c1` (stereo partly drawn) [Compound 168, 3-((2S)-2-hydroxy-3-(8-(naphthalen-2-ylsulfonyl)-1-oxa-8-azaspiro[4.5]decan-3-ylamino)propoxy)-N-(piperidin-3-ylmethyl)benzenesulfonamide] was 1470 nM; that for `C[C@H](O)CNS(=O)(=O)c1cccc(OC[C@@H](O)CN[C@H]2COC3(CCN(S(=O)(=O)c4cnc5c(c4)N(C)CCO5)CC3)C2)c1` [Compound 434, 3-((S)-2-hydroxy-3-((R)-8-(1-methyl-2,3-dihydro-1H-pyrido[2,3-b][1,4]oxazin-7-ylsulfonyl)-1-oxa-8-azaspiro[4.5]decan-3-ylamino)propoxy)-N—((S)-2-hydroxypropyl)benzenesulfonamide] was 578 nM.

Turning to `CCNS(=O)(=O)c1cccc(OC[C@@H](O)CNC2COC3(CCN(S(=O)(=O)c4ccc5nsnc5c4)CC3)C2)c1` (stereo partly drawn) [Compound 229, 3-((2S)-3-(8-(benzo[c][1,2,5]thiadiazol-5-ylsulfonyl)-1-oxa-8-azaspiro[4.5]decan-3-ylamino)-2-hydroxypropoxy)-N-ethylbenzenesulfonamide], the IC50 worked out at 272 nM.
